Measurements published in the NIST ThermoML archive (doi:10.1016/j.fluid.2006.10.012).
± gives the expanded uncertainty stated by the source.

Assay: osmotic coefficient (dimensionless); mn = molality of the nth substance listed, in mol/kg
Settings: Liquid, isopiestic method

CC(N)C(=O)O (stereo not drawn) [DL-2-aminopropanoic acid] + O
Settings | osmotic coefficient
288.15 K, m1 = 0.2159 | 0.9497 ± 0.0026
288.15 K, m1 = 0.2163 | 0.9496 ± 0.0026
288.15 K, m1 = 0.3062 | 0.944 ± 0.0027
288.15 K, m1 = 0.3066 | 0.944 ± 0.0027
288.15 K, m1 = 0.5085 | 0.9513 ± 0.0026
288.15 K, m1 = 0.5093 | 0.9514 ± 0.0026
288.15 K, m1 = 0.6031 | 0.9603 ± 0.0024
288.15 K, m1 = 0.6037 | 0.9603 ± 0.0024
288.15 K, m1 = 0.8076 | 0.9837 ± 0.0021
288.15 K, m1 = 0.8082 | 0.9838 ± 0.0021
288.15 K, m1 = 1.098 | 1.01
293.15 K, m1 = 0.2061 | 0.9725 ± 0.0022
293.15 K, m1 = 0.2068 | 0.9724 ± 0.0022
293.15 K, m1 = 0.3536 | 0.9656 ± 0.0023
293.15 K, m1 = 0.354 | 0.9656 ± 0.0023
293.15 K, m1 = 0.5134 | 0.9677 ± 0.0022
293.15 K, m1 = 0.5145 | 0.9677 ± 0.0022
293.15 K, m1 = 0.8192 | 0.9905 ± 0.002
293.15 K, m1 = 0.8199 | 0.9905 ± 0.002
293.15 K, m1 = 0.9719 | 1.007 ± 0.002
293.15 K, m1 = 0.9725 | 1.007 ± 0.002
293.15 K, m1 = 1.185 | 1.029 ± 0.0023
293.15 K, m1 = 1.186 | 1.029 ± 0.0023
298.15 K, m1 = 0.2238 | 0.9972 ± 0.002
298.15 K, m1 = 0.2243 | 0.9954 ± 0.002
298.15 K, m1 = 0.3134 | 0.9976 ± 0.002
298.15 K, m1 = 0.3135 | 0.9972 ± 0.002
298.15 K, m1 = 0.52 | 0.9983 ± 0.002
298.15 K, m1 = 0.5203 | 0.9977 ± 0.002
298.15 K, m1 = 0.5759 | 0.9986 ± 0.002
298.15 K, m1 = 0.5762 | 0.9982 ± 0.002
298.15 K, m1 = 0.7604 | 0.9998 ± 0.002
298.15 K, m1 = 0.7609 | 0.9991 ± 0.002
298.15 K, m1 = 1.056 | 1
303.15 K, m1 = 0.207 | 1.004 ± 0.002
303.15 K, m1 = 0.2076 | 1.004 ± 0.002
303.15 K, m1 = 0.3362 | 1.004 ± 0.002
303.15 K, m1 = 0.3364 | 1.004 ± 0.002
303.15 K, m1 = 0.5119 | 1.004 ± 0.002
303.15 K, m1 = 0.5129 | 1.004 ± 0.002
303.15 K, m1 = 0.7159 | 1.006 ± 0.002
303.15 K, m1 = 0.7166 | 1.006 ± 0.002
303.15 K, m1 = 0.8218 | 1.01 ± 0.002
303.15 K, m1 = 0.8221 | 1.01 ± 0.002
303.15 K, m1 = 1.038 | 1.02

CCC(N)C(=O)O (stereo not drawn) [(.+-.)-α-aminobutyric acid] + O
Settings | osmotic coefficient
288.15 K, m1 = 0.2191 | 0.9642 ± 0.0018
288.15 K, m1 = 0.2194 | 0.9642 ± 0.0018
288.15 K, m1 = 0.3053 | 0.9569 ± 0.0022
288.15 K, m1 = 0.3055 | 0.9569 ± 0.0022
288.15 K, m1 = 0.5076 | 0.9529 ± 0.0024
288.15 K, m1 = 0.5082 | 0.953 ± 0.0024
288.15 K, m1 = 0.595 | 0.9567 ± 0.0022
288.15 K, m1 = 0.596 | 0.9567 ± 0.0022
288.15 K, m1 = 0.7815 | 0.9748 ± 0.0013
288.15 K, m1 = 0.7821 | 0.9749 ± 0.0013
288.15 K, m1 = 1.057 | 1.025 ± 0.0012
288.15 K, m1 = 1.059 | 1.025 ± 0.0013
293.15 K, m1 = 0.2031 | 0.9894 ± 0.0005
293.15 K, m1 = 0.2034 | 0.9894 ± 0.0005
293.15 K, m1 = 0.3484 | 0.9811 ± 0.0009
293.15 K, m1 = 0.3492 | 0.9811 ± 0.0009
293.15 K, m1 = 0.508 | 0.9744 ± 0.0013
293.15 K, m1 = 0.5086 | 0.9744 ± 0.0013
293.15 K, m1 = 0.8066 | 0.9819 ± 0.0009
293.15 K, m1 = 0.8078 | 0.982 ± 0.0009
293.15 K, m1 = 0.9443 | 1.0001 ± 0.0001
293.15 K, m1 = 0.9453 | 1.0003 ± 0.0001
293.15 K, m1 = 1.139 | 1.048 ± 0.0024
293.15 K, m1 = 1.14 | 1.049 ± 0.0024
298.15 K, m1 = 0.2217 | 1.0067 ± 0.0003
298.15 K, m1 = 0.2219 | 1.0058 ± 0.0003
298.15 K, m1 = 0.3106 | 1.0103 ± 0.0005
298.15 K, m1 = 0.3109 | 1.0093 ± 0.0005
298.15 K, m1 = 0.5105 | 1.0168 ± 0.0008
298.15 K, m1 = 0.5108 | 1.0163 ± 0.0008
298.15 K, m1 = 0.5636 | 1.0164 ± 0.0008
298.15 K, m1 = 0.5637 | 1.0162 ± 0.0008
298.15 K, m1 = 0.7428 | 1.023 ± 0.0012
298.15 K, m1 = 0.7434 | 1.023 ± 0.0011
298.15 K, m1 = 1.022 | 1.036 ± 0.0018
298.15 K, m1 = 1.023 | 1.036 ± 0.0018
303.15 K, m1 = 0.2054 | 1.0072 ± 0.0004
303.15 K, m1 = 0.206 | 1.0073 ± 0.0004
303.15 K, m1 = 0.3334 | 1.0133 ± 0.0007
303.15 K, m1 = 0.3335 | 1.0133 ± 0.0007
303.15 K, m1 = 0.5083 | 1.0187 ± 0.0009
303.15 K, m1 = 0.5087 | 1.0187 ± 0.0009
303.15 K, m1 = 0.7146 | 1.025 ± 0.0012
303.15 K, m1 = 0.7157 | 1.025 ± 0.0012
303.15 K, m1 = 0.8091 | 1.029 ± 0.0015
303.15 K, m1 = 0.8092 | 1.029 ± 0.0015
303.15 K, m1 = 1.03 | 1.046 ± 0.0023
303.15 K, m1 = 1.031 | 1.046 ± 0.0023

NCC(=O)O [2-aminoacetic acid] + O
Settings | osmotic coefficient
288.15 K, m1 = 0.2174 | 0.9554 ± 0.0022
288.15 K, m1 = 0.2178 | 0.9554 ± 0.0022
288.15 K, m1 = 0.3075 | 0.946 ± 0.0027
288.15 K, m1 = 0.3078 | 0.946 ± 0.0027
288.15 K, m1 = 0.5175 | 0.9341 ± 0.0033
288.15 K, m1 = 0.5178 | 0.934 ± 0.0033
288.15 K, m1 = 0.6241 | 0.9302 ± 0.0035
288.15 K, m1 = 0.6251 | 0.9302 ± 0.0035
288.15 K, m1 = 0.8647 | 0.9219 ± 0.0039
288.15 K, m1 = 0.8654 | 0.9219 ± 0.0039
288.15 K, m1 = 1.193 | 0.9166 ± 0.0042
288.15 K, m1 = 1.194 | 0.9166 ± 0.0042
293.15 K, m1 = 0.2074 | 0.9705 ± 0.0015
293.15 K, m1 = 0.2076 | 0.9705 ± 0.0015
293.15 K, m1 = 0.3572 | 0.9556 ± 0.0022
293.15 K, m1 = 0.3577 | 0.9555 ± 0.0022
293.15 K, m1 = 0.5277 | 0.9428 ± 0.0029
293.15 K, m1 = 0.5284 | 0.9428 ± 0.0029
293.15 K, m1 = 0.8498 | 0.9282 ± 0.0036
293.15 K, m1 = 0.8508 | 0.9282 ± 0.0036
293.15 K, m1 = 1.027 | 0.924 ± 0.0038
293.15 K, m1 = 1.028 | 0.924 ± 0.0038
293.15 K, m1 = 1.298 | 0.9202 ± 0.004
293.15 K, m1 = 1.299 | 0.9202 ± 0.004
298.15 K, m1 = 0.2274 | 0.9815 ± 0.0009
298.15 K, m1 = 0.2276 | 0.981 ± 0.001
298.15 K, m1 = 0.3213 | 0.9767 ± 0.0012
298.15 K, m1 = 0.3214 | 0.9764 ± 0.0012
298.15 K, m1 = 0.5417 | 0.9583 ± 0.0021
298.15 K, m1 = 0.7869 | 0.9461 ± 0.0027
298.15 K, m1 = 0.7878 | 0.945 ± 0.0028
298.15 K, m1 = 0.8048 | 0.9442 ± 0.0028
298.15 K, m1 = 0.8059 | 0.9432 ± 0.0028
298.15 K, m1 = 1.139 | 0.9297 ± 0.0035
298.15 K, m1 = 1.14 | 0.9295 ± 0.0035
303.15 K, m1 = 0.203 | 0.9873 ± 0.0006
303.15 K, m1 = 0.2037 | 0.9872 ± 0.0006
303.15 K, m1 = 0.3379 | 0.9781 ± 0.0011
303.15 K, m1 = 0.3388 | 0.9781 ± 0.0011
303.15 K, m1 = 0.5346 | 0.966 ± 0.0017
303.15 K, m1 = 0.535 | 0.9659 ± 0.0017
303.15 K, m1 = 0.7489 | 0.9539 ± 0.0023
303.15 K, m1 = 0.7501 | 0.9538 ± 0.0023
303.15 K, m1 = 0.854 | 0.9483 ± 0.0026
303.15 K, m1 = 0.8547 | 0.9483 ± 0.0026
303.15 K, m1 = 1.044 | 0.9384 ± 0.0031
303.15 K, m1 = 1.045 | 0.9384 ± 0.0031
